Assay results: PMC6662706, “Short amylin receptor antagonist peptides improve memory deficits in Alzheimer’s disease mouse model” (Scientific Reports, 2019)
No end group written: not given here.

Columns and labels:
[1] = system: hippocampal LTP (CA1); experiment: Hippocampal long-term potentiation (LTP) in slices from wild type mice; set-up: species or system mouse
Description: We examined whether the peptide fragments were capable of influencing Aβ- or hAmylin-induced reduction of hippocampal LTP in mice. Exposure of hippocampal slices from wild-type mice to hAmylin (50 nM) or Aβ (50 nM) depressed LTP induced by a weak tetanization protocol at the CA1 region as previously reported[20],[30]. To determine whether peptides affected hAmylin or Aβ- induced depression of LTP, we applied 250 nM R5 or R14 continuously for 5 min prior to exposure of the hippocampal slices to 50 nM hAmylin or Aβ and the subsequent LTP induction. […] We therefore sought to determine whether peptide fragments were also capable of improving LTP levels in the same TgCRND8 AD mouse model. […] Importantly, doses of the short peptide fragments used in these experiments were equimolar to those used for AC253 and pramlintide in our previous studies[20],[30].
For electrophysiology experiment, hippocampal slices (400-μm thick) were prepared using a vibratome from wild type and TgCRND8 mice (8 month of age, male or female). For long-term potentiation (LTP) measurement, the stimulus strength was set to elicit 40–50% of the maximum fEPSP (field excitatory postsynaptic potential) amplitude and test pulses were delivered once every 30s. LTP was induced by 3-theta-burst stimulation protocol (each burst consisted of four pulses at 100 Hz with a 200-ms interburst interval). All drugs and chemicals were applied directly to the slice via bath perfusion.
Brains were quickly removed from mice following decapitation, placed in a cold artificial cerebral spinal fluid (aCSF) on a vibratome chamber, and transverse sections cut through the hippocampus. The aCSF contained (in millimolar 124 NaCl, 3 KCl, 2.4 CaCl2, 2 MgCl2, 1.25 NaH2PO4, 26 NaHCO3, and 10 D-glucose and was equilibrated with 95 % O2 and 5 % CO2. Hippocampal slices (400-μm thick) were maintained in aCSF-filled holding chamber at room temperature for at least 1 h and individually transferred to the submerged glass bottom recording chamber, which was constantly perfused with aCSF (2 ml/min) at 30 °C. Field excitatory postsynaptic potential (fEPSP) was recorded with a metallic (Pt/Ir) electrode (FHC, Bowdoin, ME) from the stratum radiatum layer of Cornu ammonis 1 region of the hippocampus (CA1) area, and the Schaffer collateral afferents were stimulated with 100-μs test pulses via a bipolar cluster electrode (FHC). For long-term potentiation (LTP) experiments, the stimulus strength was set to elicit 40–50 % of the maximum fEPSP amplitude and test pulses were delivered to Schaffer collaterals once every 30 s. […] Before 3-TBS or drug application, the responses were monitored for at least 10 min to ensure a stable baseline of fEPSP. […]

[2] = target: T1, AMY3 receptor (Homo sapiens, UniProt O60896+P30988); experiment: Block of hAmylin-evoked cAMP generation in HEK-AMY3 cells; format: cell-based; settings: peptide 30 min then hAmylin 1 pM–10 µM 30 min, peptides 10 µM (Fig. 1E legend), 1 µM (supplement method)
T1 construct: expressed in transfected cells
T1 sequence (P30988 25-474): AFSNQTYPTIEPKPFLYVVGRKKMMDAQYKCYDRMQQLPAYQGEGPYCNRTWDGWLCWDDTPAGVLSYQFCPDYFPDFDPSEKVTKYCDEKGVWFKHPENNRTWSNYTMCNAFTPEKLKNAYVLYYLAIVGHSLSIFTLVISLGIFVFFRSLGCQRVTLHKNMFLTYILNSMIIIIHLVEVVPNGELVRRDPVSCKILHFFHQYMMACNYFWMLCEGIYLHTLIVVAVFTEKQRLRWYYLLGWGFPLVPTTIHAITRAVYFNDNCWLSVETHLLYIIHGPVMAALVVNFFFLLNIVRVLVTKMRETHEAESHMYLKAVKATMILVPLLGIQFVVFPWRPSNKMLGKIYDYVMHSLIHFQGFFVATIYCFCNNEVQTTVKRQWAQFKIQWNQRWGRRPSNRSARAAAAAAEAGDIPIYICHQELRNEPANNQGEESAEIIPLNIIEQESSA
T1 sequence (O60896 24-148): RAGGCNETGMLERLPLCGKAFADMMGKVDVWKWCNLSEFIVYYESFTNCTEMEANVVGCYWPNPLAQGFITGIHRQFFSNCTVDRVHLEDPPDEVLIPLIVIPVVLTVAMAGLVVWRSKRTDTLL
From the text: Human amylin is a potent agonist at amylin receptor stimulating cAMP production in cells. In the first in vitro bioassay, we examined ability of R5 and R14 to block the hAmylin-evoked cAMP generation in HEK-AMY3 cells. R11 peptide served as a negative control. […] In a second in vitro assay, we examined whether peptides R5, and R14 could protect human fetal neurons (HFNs) and N2a (mouse neuroblastoma cell line) from Αβ1–42 induced cytotoxicity.
A shorter peptide library was derived from AC253 peptide sequence comprising 12–14 amino acid peptides. […] To determine the activity of these shorter peptides to block AMY3 receptor signaling, cellular cAMP levels (measured using a parameter cyclic AMP assay kit, R&D Systems) and phosphorylation ERK1/2 (Western blot) were measured. We assessed neuroprotective properties of the peptide fragments against Aβ cytotoxicity in vitro using the MTT assay in N2a cell line and human fetal neurons (HFNs), which were prepared from 12- to 15-gestational week fetuses with approval of the Human Ethics Research Board at the University of Alberta as previously reported[17],[19].
For cAMP measurements, HEK-AMY3 cells were plated on 24-well plates overnight. […] Cellular cAMP levels were measured using a parameter cyclic AMP assay kit (R&D Systems) according to the manufacturer’s instructions. […]

[3] = Brain uptake of R5 compared with davalintide, wild-type and het CTR mice; format: in vivo, mouse; settings: mouse, not told, ip
Description: For peptide R5 brain uptake in comparison to Davlintide, wild-type littermate (C57BL/6 background) mice and heterozygous CTR knockdown mice (50% CTR expression level compared to wild type control mice and presumably with 50% AMY receptor expression level) was used (n=5 in each group). Mouse brains were extracted after 2h from a single injection and fluorescence in brains was quantified as mentioned above.
Supplementary Figure S3: The comparison of brain permeability for R5 and Davalintide.

## SQELHRLQTYPR-NH2 [R5]
[1]; wild type mouse slices, 250 nM
  effect of peptide alone on hippocampal LTP: did not impair LTP
[1]; wild-type mouse slices, peptide 250 nM for 5 min before Aβ1–42 50 nM, n = 6 recordings
  effect on Aβ-induced depression of hippocampal LTP: reversed
[1]; wild-type mouse slices, peptide 250 nM for 5 min before hAmylin 50 nM, n = 6 recordings
  effect on hAmylin-induced depression of hippocampal LTP: reversed
[2]
  block of hAmylin-evoked cAMP increases: blocked the cAMP increases in a dose-dependent manner
[3]
  brain permeability, R5 versus davalintide: greater brain permeability

## LGRLSQELHRLQTYPRTNTGSNTY-NH2 (C-terminus assumed) [AC253, reference compound]
[2]
  block of hAmylin-evoked cAMP increases: inhibited
